Laboratory results reported in patent publication US11857515B2, “Branched amino acid surfactants for use in healthcare products” (AdvanSix Resins & Chemicals LLC, priority 2020, dated 2024).
Values joined by “and” are separate entries in the source; they are usually repeats but may differ in a detail not shown here. Identical values can stand only once.

Key:
Assay type in all cases: physicochemical
[1] = Dynamic surface tension, bubble pressure tensiometer; settings: 23° C.
Description: One method by which dynamic surface tension is measured relies upon a bubble pressure tensiometer. This device measures the maximum internal pressure of a gas bubble that is formed in a liquid by means of a capillary. The measured value corresponds to the surface tension at a certain surface age, the time from the start of the bubble formation to the occurrence of the pressure maximum. The dependence of surface tension on surface age can be measured by varying the speed at which bubbles are produced.
(§1) Nuclear magnetic resonance (NMR) spectroscopy was performed on a Bruker 500 MHz spectrometer. The critical micelle concentration (CMC) was determined by the Wilhelmy plate method at 23° C. with a tensiometer (DCAT 11, DataPhysics Instruments GmbH) equipped with a Pt—Ir plate. Dynamic surface tension was determined with a bubble pressure tensiometer (Krüss BP100, Krüss GmbH), at 23° C. Contact angle was determined with the optical contact angle goniometer (OCA 15 Pro, DataPhysics GmbH) equipped with a digital camera.
The dynamic surface tension of the 6-((2-butyloctyl)oxy)-N,N-dimethyl-6-oxohexan-1-aminium 4-methylbenzenesulfonate from Example 2a was determined with a bubble pressure tensiometer which measures the change of surface tension of a freshly created air-water interface with time. FIG. 2B presents a plot of the surface tension versus time, showing that surface tension in the time interval between 10 and 100 ms drops rapidly from about 46 mN/m to about 30 mN/m. In the time interval from 100 to 8,000 ms, the surface tension drops slowly from 30 mN/m to about 27 mN/m, approaching asymptotically the saturation value of the surface tension at the CMC.

[2] = Critical micelle concentration (CMC) from surface tension versus concentration, Wilhelmy plate method; settings: for surface tension at the CMC: from plot of surface tension versus concentration; for surface tension at the CMC / minimum surface tension that can be reached (plateau / asymptotic value): pH=7; for minimum surface tension that can be reached (plateau / asymptotic value) / critical micelle concentration (CMC): in water
Source text: As surfactant concentration increases, surface tension decreases. Once the surface is completely overlaid with surfactant molecules, micelles begin to form. This point represents the CMC, as well as the minimum surface tension. Further addition of surfactant will not further affect the surface tension. CMC may therefore be measured by observing the change in surface tension as a function of surfactant concentration. One such method for measuring this value is the Wilhemy plate method. A Wilhelmy plate is usually a thin iridium-platinum plate attached to a balance by a wire and placed perpendicularly to the air-liquid interface. The balance is used to measure the force exerted on the plate by wetting. This value is then used to calculate the surface tension (γ) according to Equation 1: γ=F/I cos θ Equation 1: wherein I is equal to the wetted perimeter (2w+2d, in which w and d are the […], respectively) and cos θ, the contact angle between the liquid and the plate, is assumed to be 0 in the absence of an extant literature value.
as §1
The critical micelle concentration (CMC) of the 6-((2-butyloctyl)oxy)-N,N,N-trimethyl-6-oxohexan-1-aminium iodide from Example 1a was tested. […] From the plot of the results, the surface tension at the CMC is equal to or less than about 27 mN/m.
The critical micelle concentration (CMC) of the 6-((2-butyloctyl)oxy)-N,N-dimethyl-6-oxohexan-1-aminium 4-methylbenzenesulfonate from Example 2a was tested. From the change in surface tension with concentration in water, the CMC was determined to be about 0.97 mmol. The plateau value of minimum surface tension that can be reached by this surfactant is about 27 mN/m, namely 27 mN/m±3 mN/m. […] From the plot of the results, the surface tension at the CMC is equal to or less than about 30 mN/m.

[3] = Wetting properties: contact angle on solid substrates, optical contact angle goniometer; settings: 10x CMC
Source text: Surface-active compounds may also be assessed by their wetting ability on solid substrates as measured by the contact angle. When a liquid droplet comes in contact with a solid surface in a third medium, such as air, a three-phase line forms among the liquid, the gas and the solid. The angle between the surface tension unit vector, acting at the three-phase line and tangent at the liquid droplet, and the surface is described as the contact angle. The contact angle (also known as wetting angle) is a measure of the wettability of a solid by a liquid. In the case of complete wetting, the liquid is completely spread over the solid and the contact angle is 0°. Wetting properties are typically measured for a given compound at the concentration of 1-10×CMC, however, it is not a property that is concentration-dependent therefore measurements of wetting properties can be measured at concentrations that are higher or lower.
In one method, an optical contact angle goniometer may be used to measure the contact angle. This device uses a digital camera and software to extract the contact angle by analyze the contour shape of a sessile droplet of liquid on a surface.
as §1
In addition to surface tension and surface dynamics, the wetting properties of the 6-((2-butyloctyl)oxy)-N,N-dimethyl-6-oxohexan-1-aminium 4-methylbenzenesulfonate from Example 2a were tested on various surfaces.

[4] = substrate Polyethylene terephthalate

Compound | dynamic surface tension ([1]; surface age 10 ms) | dynamic surface tension ([1]; surface age 100 ms) | dynamic surface tension ([1]; surface age 8,000 ms) | surface tension at the CMC [2] | minimum surface tension that can be reached (plateau / asymptotic value) ([2]; 23° C.) | critical micelle concentration (CMC) ([2]; 23° C., pH=7, Wilhelmy plate) | CA of Surfactant (contact angle) ([3]; substrate Nylon) | CA of Surfactant (contact angle) [3, 4] | CA of Surfactant (contact angle) ([3]; substrate Polyethylene-HD) | CA of Surfactant (contact angle) ([3]; substrate Teflon) | critical micelle concentration (CMC), not clearly determined up to this concentration ([2]; 23° C., pH=7, Wilhelmy plate) | surface tension ([2]; at a concentration of about 1.0 mmol or greater) | dynamic surface tension ([1]; surface age 1,000 ms)
CCCCCCC(CCCC)COC(=O)CCCCC[N+](C)(C)CCCCS(=O)(=O)[O-] (stereo not shown) [Example 4a, 4-((6-((2-butyloctyl)oxy)-6-oxohexyl)dimethylammonio)butane-1-sulfonate] | about 66 mN/m | about 36 mN/m | about 32 mN/m | ≤ 32 mN/m | about 32 mN/m | about 0.54 mmol | 28.7 ° | 29.8 ° | 44.4 ° | 62.2 ° |  |  | 
CCCCCCC(CCCC)COC(=O)CCCCCN(C)C.Cl (stereo not shown) [Example 3a, 6-((2-butyloctyl)oxy)-N,N-dimethyl-6-oxohexan-1-aminium chloride] |  |  |  |  | about 29 mN/m |  |  |  |  |  |  |  | 
CCCCCCC(CCCC)COC(=O)CCCCC[N+](C)(C)C.[I-] (stereo not shown) [Example 1a, 6-((2-butyloctyl)oxy)-N,N,N-trimethyl-6-oxohexan-1-aminium iodide] |  |  |  | ≤ 27 mN/m | about 27 mN/m |  |  |  |  |  | > 10 mg/mL |  | 
CCCCCCC(CCCC)COC(=O)CCCCCN.Cc1ccc(S(=O)(=O)O)cc1 (stereo not shown) [Example 7a, 6-((2-butyloctyl)oxy)-6-oxohexan-1-aminium 4-methylbenzenesulfonate] | about 46 mN/m | about 30 mN/m | about 27 mN/m | ≤ 30 mN/m | about 27 mN/m | about 2.12 mmol | 12.6 ° | 13.2 ° | 14.6 ° | 49.4 ° |  | ≤ 28.5 mN/m | 
CCCCCCC(CCCC)COC(=O)CCCCCN(C)C.Cc1ccc(S(=O)(=O)O)cc1 (stereo not shown) [Example 2a, 6-((2-butyloctyl)oxy)-N,N-dimethyl-6-oxohexan-1-aminium 4-methylbenzenesulfonate] | about 46 mN/m | about 30 mN/m | about 27 mN/m | ≤ 30 mN/m | about 27 mN/m | about 0.97 mmol | 13.5 ° | 7.7 ° | 24.3 ° | 48.2 ° |  |  | 
CCCCCCC(CCCC)COC(=O)CCCCCN.Cl (stereo not shown) [Example 6a, 6-((2-butyloctyl)oxy)-6-oxohexan-1-aminium chloride] | about 69 mN/m |  | about 29 mN/m | ≤ 30 mN/m | about 27 mN/m | about 0.15 mmol | 24.5 ° | 20.1 ° | 25.8 ° | 48.7 ° |  |  | about 49 mN/m
CCCCCCC(CCCC)COC(=O)CCCCC[N+](C)(C)[O-] (stereo not shown) [Example 5a, 2-butyloctyl 6-(dimethylamino)hexanoate N-oxide] | about 60 mN/m |  | about 28 mN/m | ≤ 28 mN/m | about 28 mN/m | about 0.29 mmol | 38.5 ° | 9.2 ° | 31.6 ° and 31.9 ° | 41.5 ° and 41.0 ° |  |  | about 30 mN/m
